Measurements as given in publication PMC6615261, “Repurposing Azithromycin and Rifampicin Against Gram-Negative Pathogens by Combination With Peptidomimetics” (Frontiers in Cellular and Infection Microbiology, 2019).
Like-named read-outs stand apart in the source and are kept apart here.

Legend:
[1] = test system: K. pneumoniae ST258
Procedure: (§1) The potential synergistic effects in peptidomimetic-antibiotic combinations were assessed by using a two-dimensional checkerboard assay (Garcia, [2010]). Briefly, twofold dilutions of peptide and antibiotic were prepared in MBH II media along the X- and Y-axis, respectively, in 96-well plates. The inoculum was added to the plates, and subsequently these were incubated for 18–20 h. All steps for inoculum preparation and broth microdilution were in accordance with the CLSI guidelines (Clinical and Laboratory Standards Institute, [2013]). The fractional inhibitory concentration index (FICI) was calculated as [MICA(A+B)/MICA(alone)] + [MICB(A+B)/MICB(alone)], where MICA(A+B) represents the MIC of antibiotic (A) in combination with peptidomimetic (B), while MICB(A+B) represents the MIC of peptidomimetic (B) in combination with antibiotic (A). MICA(alone) and MICB(alone) represent the MIC of each compound individually. FICI values of ≤0.5 were interpreted as synergy.

[2] = test system: E. coli ST131
Procedure: as §1

[3] = test system: P. aeruginosa ATCC 27853
Procedure: as §1

[4] = test system: P. aeruginosa ATCC 27853; assay: MIC by broth microdilution; format: cell-based, Pseudomonas aeruginosa; conditions: peptidomimetic alone
Procedure: (§2) Minimal inhibitory concentrations (MICs) of peptidomimetics, antibiotics and their combinations were determined by broth microdilution according to the Clinical Laboratory Standards Institute performance standards (Clinical and Laboratory Standards Institute, [2013]). […] Since rifampicin and azithromycin mainly are used to treat infections with Gram-positive pathogens only CLSI clinical breakpoints were available for such bacteria. […] Potentiation of additional antibiotics by peptidomimetics was determined by using commercial 96-well plates containing varied concentrations of standard antibiotics (COMPAN1F; Trek Diagnostic Systems Inc.). The peptidomimetics were added immediately prior to inoculation with pathogen, and then MICs were determined as above. The MICs of peptidomimetic/antibiotic combinations were determined according to the method above, and the concentration ratios were selected based upon checkerboard results with 2:1 and 1:4 ratio of peptidomimetic with rifampicin or azithromycin, respectively. Minimal bactericidal concentrations (MBCs) were determined by using growth-curve assay plates. MIC plates were prepared as above, and then the plates were incubated at 37°C with continuous shaking. Growth was recorded at 10 min intervals as optical density (OD) at 600 nm during 24 h. At 24 h, for wells without growth, a sample was diluted 10-fold in sterile saline (0.9% sodium chloride) and plated onto MHA, following CLSI guidelines (Clinical and Laboratory Standards Institute, [1999]).

[5] = test system: K. pneumoniae ST258; assay: MIC by broth microdilution; format: cell-based, Klebsiella pneumoniae
Procedure: as §2

[6] = test system: K. pneumoniae ST258; assay: Screening of peptidomimetic-antibiotic combinations (growth / growth inhibition); format: cell-based, Klebsiella pneumoniae; design: key to Growth in combination with RIF / Growth in combination with AZM: Growth (+); growth inhibition (–)
Procedure: as §2

[7] = test system: NIH 3T3 and HepG2 cells; assay: Effect on viability of mammalian cells (both cell lines); format: cell-based, mouse and human
Procedure: (§3) NIH 3T3 and HepG2 cells (both from ATCC, Manassas, VA, USA) were cultured in flat-bottomed 96-well MicroWell™ plates (NUNC, Roskilde, Denmark) at seeding densities of ~23,000 and ~22,000 cells/well, respectively, and then cultured for 22–24 h under standard culturing conditions (37°C, 5% CO2, humidified air) to reach 80–90% confluence. NIH 3T3 were cultured in Dulbecco's modified Eagle's medium (DMEM) supplemented with 10% (v/v) newborn-calf serum (NCS) (Gibco, Paisly, UK), while HepG2 were cultured in Eagle's minimum essential medium (EMEM) supplemented with 10% (v/v) fetal bovine serum (FBS, Gibco, Paisly, UK), sodium pyruvate (1 mM), and non-essential amino acids (1%, v/v). Both culturing media were further supplemented with penicillin (100 U/mL), streptomycin (100 μg/mL), and L-glutamine (2 mM).
(§4) Effect on cell viability was determined in NIH 3T3 fibroblasts and HepG2 hepatocytes by using the MTS/PMS assay measuring metabolic activity. Briefly, the adhered cells were washed with 37°C Hanks' balanced salt solution (HBSS from Sigma-Aldrich, St. Louis, MO, USA), containing 10 mM HEPES (AppliChem, Darmstadt, Germany), and adjusted to pH 7.4, and were then exposed for 1 h to 100 μL of test compound(s) dissolved in the appropriate culturing medium without serum for each cell line. After exposure the cells were washed with HBSS containing 10 mM HEPES (pH 7.4) and 100 μL of an MTS/PMS solution, consisting of 240 μg/mL MTS (Promega, Madison, WI, USA) and 2.4 μg/mL PMS (SigmaAldrich, Buchs, Switzerland) in HBSS, was added to the cells, which then were incubated for 1 h at 37°C with horizontal shaking under light protection. Absorbance was measured at 492 nm by using a POLARstar OPTIMA plate reader (BMG Labtech, Offenburg, Germany). The relative viability was calculated according to Equation (1) with absorbance values obtained after incubation of cells with test compound; incubation with SDS (0.2%, w/v in medium) defined 100% cell death (Abspos), while the absorbance of cells incubated with medium defined 0% cell death (Absneg).
(§5) (1) Relative viability(%)=(Abssample-Abspos)/(Absneg-Abspos)×100%
(§6) EC50 values were calculated by using GraphPad Prism 7 (GraphPad Software, La Jolla, CA, USA) via fitting of the relative cell viability to the concentration of the test compound by using Equation (2):
(§7) (2) Relative viability(%)= Top-Bottom/1+10^(LogIC50-Log[peptidomimetic]) ×Hill slope
With top and bottom representing the mean highest and lowest observed values, respectively. The Hill slope represents a factor for the steepness of the linear part of the curve. […] The selectivity index was calculated as the average effect on cell viability (EC50 values for HepG2 and NIH 3T3 cells) divided by the MIC.

[8] = test system: E. coli ST131; assay: MIC by broth microdilution; format: cell-based, Escherichia coli; conditions: peptidomimetic alone
Procedure: as §2

[9] = MTS/PMS cell viability assay; format: cell-based; conditions: human, HepG2 hepatocytes, 1 h exposure, read-out: Cytotoxicity HepG2 EC50 ± SD
Procedure: as §3, §4, §5, §6, §7
(§8) With top and bottom representing the mean highest and lowest observed values, respectively. The Hill slope represents a factor for the steepness of the linear part of the curve. In order to prevent erroneous calculation, the top and bottom values were constrained to 100 and 0%, respectively. Data were collected from technical triplicates. The selectivity index was calculated as the average effect on cell viability (EC50 values for HepG2 and NIH 3T3 cells) divided by the MIC.

[10] = MTS/PMS cell viability assay; format: cell-based, mouse; conditions: mouse, NIH 3T3 fibroblasts, 1 h exposure, read-out: Cytotoxicity NIH 3T3 EC50 ± SD
Procedure: as §3, §4, §5, §6, §7, §8

[11] = test system: MDR E. coli ST131; assay: Screening of peptidomimetic-antibiotic combinations (growth / growth inhibition); format: cell-based, Escherichia coli; design: key to Growth in combination with RIF / Growth in combination with AZM: Growth (+); growth inhibition (–)
Procedure: as §2

[12] = MIC of azithromycin combined with the labelled peptidomimetic
[13] = MIC of rifampicin combined with the labelled peptidomimetic
[14] = peptidomimetic 0.5 μM + azithromycin 1 μg/mL
[15] = peptidomimetic 0.5 μM + rifampicin 0.5 μg/mL

For `C[C@@H](c1ccccc1)N(CCC(N)=O)C(=O)[C@H](CCCCNC(=N)N)NC(=O)CCN(C(=O)[C@H](CCCCN)NC(=O)CCN(C(=O)[C@H](CCCCNC(=N)N)NC(=O)CCN(C(=O)[C@H](CCCCN)NC(=O)CCN(C(=O)[C@H](CCCCNC(=N)N)NC(=O)CCN(C(=O)[C@H](CCCCN)NC(=O)CNCCN)[C@@H](C)c1ccccc1)[C@@H](C)c1ccccc1)[C@@H](C)c1ccccc1)[C@@H](C)c1ccccc1)[C@@H](C)c1ccccc1` [Peptidomimetic 25, NDab-Lys-βNspe-hArg-βNspe)3-NH2], the “Antibiotic MIC in combination (AZM)” value [1, 12] was 8 µg/mL, the “Antibiotic MIC in combination (RIF)” value [1, 13] was 0.06 µg/mL and the “Peptidomimetic MIC alone” value ([1]; checkerboard) was 8 µM. For the same compound, the “Peptidomimetic MIC in combination” value ([1]; combined with AZM) was 0.5 µM, the “Peptidomimetic MIC in combination” value ([1]; combined with RIF) was 1 µM and the “Antibiotic MIC in combination (AZM)” value [2, 12] was 0.5 µg/mL. The “Antibiotic MIC in combination (RIF)” value [2, 13] was 0.5 µg/mL, the “Peptidomimetic MIC alone” value ([2]; checkerboard) was 2 µM and the “Peptidomimetic MIC in combination” value ([2]; combined with AZM) was 0.25 µM. The “Peptidomimetic MIC in combination” value ([2]; combined with RIF) was 0.25 µM, the “Antibiotic MIC in combination (RIF)” value ([3]; P. aeruginosa ATCC 27853, MIC of rifampicin combined with the labelled peptidomimetic) was 0.06 µg/mL and the “Peptidomimetic MIC alone” value ([3]; P. aeruginosa ATCC 27853, checkerboard) was 8 µM. The “Peptidomimetic MIC in combination” value ([3]; P. aeruginosa ATCC 27853, combined with AZM) was 1 µM, the “Peptidomimetic MIC in combination” value ([3]; P. aeruginosa ATCC 27853, combined with RIF) was 1 µM and the “Reduction of the MIC of azithromycin” value ([3]; P. aeruginosa, sub-MIC concentrations of peptidomimetic) was 32- to 512 fold. The “MIC P. aeruginosa ATCC 27853” value [4] was 8 µM, the “Selectivity Index (SI) K. pneumoniae ST258” value ([5]; average of EC50 (HepG2, NIH 3T3) divided by MIC) was “(16)” and the “MIC K. pneumoniae ST258” value ([5]; peptidomimetic alone) was 8 µM. The “Growth in combination with AZM” value [6, 14] was “+”, the “Growth in combination with RIF” value [6, 15] was “+” and the EC50 [7] was 80 to 170 µM. For the same compound, the “MIC E. coli ST131” value [8] was 2 µM, the EC50 at 1 h [9] was 85 ± 3.06 µM and the EC50 at 1 h [10] was 167 ± 5.53 µM. The “Growth in combination with AZM” value [11, 14] was “–” and the “Growth in combination with RIF” value [11, 15] was “–”.
